Measured values: article PMC8348686, “The Pharmacological Profile of Second Generation Pyrovalerone Cathinones and Related Cathinone Derivative” (International Journal of Molecular Sciences, 2021)
Where two headings read alike, the source gives them in different places.

Key:
h5-HT1A receptor = target: T1, h5-HT1A receptor (Homo sapiens, UniProt P08908); assay: Radioligand binding, [3H]-8-OH-DPAT
T1 construct: expressed in transfected cells; host or cells: HEK293 cell preparations
T1 sequence (P08908 1-422): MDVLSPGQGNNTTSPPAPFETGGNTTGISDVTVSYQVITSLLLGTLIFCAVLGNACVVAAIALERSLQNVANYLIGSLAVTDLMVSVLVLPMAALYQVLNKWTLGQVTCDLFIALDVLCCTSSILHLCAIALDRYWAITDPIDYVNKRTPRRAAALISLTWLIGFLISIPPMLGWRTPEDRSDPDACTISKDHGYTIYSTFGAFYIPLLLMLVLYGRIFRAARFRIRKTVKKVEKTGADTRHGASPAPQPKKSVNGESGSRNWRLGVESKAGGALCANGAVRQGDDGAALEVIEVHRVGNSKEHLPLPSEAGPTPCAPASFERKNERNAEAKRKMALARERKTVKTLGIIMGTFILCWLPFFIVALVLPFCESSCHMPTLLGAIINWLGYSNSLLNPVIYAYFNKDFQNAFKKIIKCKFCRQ
Experimental: (§1) The radioligand binding assays for the human 5-HT1A, 5-HT2A, and 5-HT2C receptors were examined as previously described by. In summary, the human embryonic kidney 293 (HEK293) cell preparations were stably transfected with the human 5-HT1A, 5-HT2A or 5-HT2C receptors and then incubated with their respective radiolabelled ligands at a concentration equal to the dissociation constant, Kd. The following radioligands were used for the 5-HT1A, 5-HT2A, and 5-HT2C receptors, respectively; 0.90 nM [^3H]8-hydroxy-2-(dipropylamino) tetralin (8-OH-DPAT), 0.40 nM [^3H]ketanserin, and 1.4 nM [^3H]mesulgerine. The radioligand displacement for each examined drug was determined. Specific binding of the radioligand to the target was calculated by subtracting the nonspecific binding (in the presence of the receptor’s competitor in excess) from the total observed binding. The following radioligand competitors were used for the 5-HT1A, 5-HT2A, and 5-HT2C receptors, respectively; 10 μM pindolol (5-HT1A receptor), 10 μM spiperone (5-HT2A receptor), and 10 μM mianserin (5-HT2C receptor).

[1] = target: T2, human serotonin (hSERT) uptake transporter (Homo sapiens, UniProt P31645); assay: Monoamine uptake inhibition, serotonin uptake in transfected HEK293 cells; format: cell-based
T2 construct: expressed in transfected cells; host or cells: HEK293
T2 sequence (P31645 whole entry): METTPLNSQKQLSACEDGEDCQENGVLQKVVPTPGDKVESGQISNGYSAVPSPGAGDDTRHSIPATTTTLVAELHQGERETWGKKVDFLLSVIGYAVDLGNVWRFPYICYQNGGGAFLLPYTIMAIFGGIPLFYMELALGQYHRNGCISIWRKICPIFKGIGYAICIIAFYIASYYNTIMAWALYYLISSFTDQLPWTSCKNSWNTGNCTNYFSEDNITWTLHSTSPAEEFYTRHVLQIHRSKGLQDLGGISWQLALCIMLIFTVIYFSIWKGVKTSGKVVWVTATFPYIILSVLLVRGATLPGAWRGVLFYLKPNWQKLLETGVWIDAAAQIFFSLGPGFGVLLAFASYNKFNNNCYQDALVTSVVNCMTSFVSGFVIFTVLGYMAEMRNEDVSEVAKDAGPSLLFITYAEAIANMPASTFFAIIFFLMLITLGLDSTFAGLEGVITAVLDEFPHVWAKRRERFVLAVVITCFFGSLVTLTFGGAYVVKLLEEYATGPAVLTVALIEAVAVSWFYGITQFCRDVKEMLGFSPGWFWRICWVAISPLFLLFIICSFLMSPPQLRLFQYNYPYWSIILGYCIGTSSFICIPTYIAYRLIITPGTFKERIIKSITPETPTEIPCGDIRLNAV
Experimental: (§2) The monoamine uptake transporter inhibition was examined in accordance with previously described methods by for each substance of interest.
(§3) Human embryonic kidney 293 (HEK293) cells (Invitrogen, Zug, Switzerland) stably transfected with the human norepinephrine (hNET), dopamine (hDAT), or serotonin (hSERT) uptake transporters were briefly cultured in Dulbecco’s modified Eagle’s medium (DMEM; Gibco, Life Technologies, Zug, Switzerland) containing 10% fetal bovine serum and 250 μg/mL geneticin (Gibco, Life Technologies, Zug, Switzerland). Next, the cells were detached at a confluency of 70−90% and resuspended in Krebs–Ringer Bicarbonate Buffer (Sigma-Aldrich, Buchs, Switzerland) at a concentration of 3 × 10^6 cells per ml. The uptake buffer was additionally supplemented with 0.2 mg/mL of ascorbic acid (Sigma–Aldrich, Buchs, Switzerland) for the [^3H]-DA uptake experiments.
(§4) In summary, using round bottom 96-well plates, 100 μL of cell suspension was incubated in 25 μL of buffer containing test substances, vehicle control (0.7% dimethyl sulfoxide, DMSO), or 10 μM of the respective monoamine uptake inhibitor, mainly fluoxetine (SERT), nisoxetine (NET), or mazindol (DAT) for 10 min at room temperature while on a rotary shaker at 450 rpm (Thermomixer Comfort, Eppendorf, Hamburg, Germany). Thereafter, the monoamine uptake transporter was initiated by the addition of 50 μL of each respective radiolabelled neurotransmitter ([^3H]-5-HT, [^3H]-DA or [^3H]-NE) dissolved in the uptake buffer to a final concentration of 5 nM for an additional 10 min. Then, 100 μL of cell suspension mixture was transferred to microcentrifuge tubes containing 50 μL of 3 M potassium hydroxide (KOH, Sigma–Aldrich, Buchs, Switzerland) and 200 μL silicon oil (1:1 mixture of silicon oil type AR20 and AR200; Sigma–Aldrich, Buchs, Switzerland). Immediately after, the tubes were centrifugated (3 min, 13200 rpm) to terminate the uptake reaction by allowing the cells to move through the silicon oil into the KOH, which then lysed the cells. Quickly after, the tubes were immediately frozen with liquid nitrogen. Afterwards, the frozen cell pellet was cut off into 6 mL scintillation vials (Perkin–Elmer, Schwerzenbach, Switzerland) filled with 500 μL of lysis buffer (5 mM EDTA, 0.05 M TRIS-HCl, 50 mM NaCl and 1% NP-40 in water). Directly after the vials were shaken for 1 h at 700 rpm and then each vial was filled with 3 mL of scintillation fluid (Ultimagold, Perkin–Elmer, Schwerzenbach, Switzerland). The uptake of the monoamines was measured using a liquid scintillation counter (Packard Tri-Carb Liquid Scintillation Counter 1900 TR).
(§5) The data were analysed using Prism software (version 8, GraphPad, San Diego, CA, USA) and was fitted by a nonlinear regression to variable-slope sigmoidal dose-response curve. The IC50 values were extracted in order to determine each drug’s inhibition potency at the various monoamine transporters.

[2] = target: T3, human dopamine (hDAT) uptake transporter (Homo sapiens, UniProt Q01959); assay: Monoamine uptake inhibition, dopamine uptake in transfected HEK293 cells; format: cell-based
T3 construct: expressed in transfected cells; host or cells: HEK293
T3 sequence (Q01959 whole entry): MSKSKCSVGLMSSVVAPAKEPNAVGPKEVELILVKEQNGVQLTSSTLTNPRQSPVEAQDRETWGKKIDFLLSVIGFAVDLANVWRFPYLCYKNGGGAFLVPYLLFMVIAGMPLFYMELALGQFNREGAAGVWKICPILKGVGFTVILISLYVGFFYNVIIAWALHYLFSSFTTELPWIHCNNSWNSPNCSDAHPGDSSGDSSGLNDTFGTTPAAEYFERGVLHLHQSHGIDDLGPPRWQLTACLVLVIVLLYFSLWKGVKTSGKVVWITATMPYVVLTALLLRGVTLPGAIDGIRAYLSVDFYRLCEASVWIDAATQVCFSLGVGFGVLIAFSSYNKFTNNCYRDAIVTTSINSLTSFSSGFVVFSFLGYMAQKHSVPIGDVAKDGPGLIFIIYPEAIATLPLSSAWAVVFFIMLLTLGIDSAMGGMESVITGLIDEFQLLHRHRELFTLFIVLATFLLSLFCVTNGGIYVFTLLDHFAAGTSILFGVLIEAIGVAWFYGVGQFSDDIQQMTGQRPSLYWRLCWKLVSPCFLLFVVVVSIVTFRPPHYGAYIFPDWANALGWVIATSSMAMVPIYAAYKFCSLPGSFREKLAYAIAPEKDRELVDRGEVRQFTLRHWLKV
Experimental: as §2, §3, §4, §5

[3] = target: T4, human norepinephrine (hNET) uptake transporter (Homo sapiens, UniProt P23975); assay: Monoamine uptake inhibition, norepinephrine uptake in transfected HEK293 cells; format: cell-based; conditions: for fold higher inhibition potency at the NET: compared to α-PPP
T4 construct: expressed in transfected cells; host or cells: HEK293
T4 sequence (P23975 whole entry): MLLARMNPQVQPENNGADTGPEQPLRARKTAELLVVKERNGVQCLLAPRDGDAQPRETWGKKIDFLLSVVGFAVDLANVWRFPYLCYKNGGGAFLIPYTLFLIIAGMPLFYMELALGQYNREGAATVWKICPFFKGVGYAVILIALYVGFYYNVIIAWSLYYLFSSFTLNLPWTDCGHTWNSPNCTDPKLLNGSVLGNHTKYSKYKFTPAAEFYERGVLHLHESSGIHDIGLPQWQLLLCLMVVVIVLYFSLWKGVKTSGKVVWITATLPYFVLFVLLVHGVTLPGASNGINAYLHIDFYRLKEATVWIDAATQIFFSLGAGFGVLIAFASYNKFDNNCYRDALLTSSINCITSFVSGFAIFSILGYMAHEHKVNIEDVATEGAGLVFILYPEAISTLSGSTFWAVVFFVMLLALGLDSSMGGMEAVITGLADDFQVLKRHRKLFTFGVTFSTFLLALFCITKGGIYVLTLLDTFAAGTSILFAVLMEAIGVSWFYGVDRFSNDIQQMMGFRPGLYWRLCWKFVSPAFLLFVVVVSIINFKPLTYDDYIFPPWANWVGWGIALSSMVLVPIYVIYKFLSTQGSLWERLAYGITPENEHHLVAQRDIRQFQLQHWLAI
Experimental: as §2, §3, §4, §5

h5-HT2B receptor = target: T5, h5-HT2B receptor (Homo sapiens, UniProt P41595); assay: Activation potency, FLIPR calcium assay in HEK293 cells; format: cell-based
T5 construct: expressed in transfected cells; host or cells: HEK293
T5 sequence (P41595 whole entry): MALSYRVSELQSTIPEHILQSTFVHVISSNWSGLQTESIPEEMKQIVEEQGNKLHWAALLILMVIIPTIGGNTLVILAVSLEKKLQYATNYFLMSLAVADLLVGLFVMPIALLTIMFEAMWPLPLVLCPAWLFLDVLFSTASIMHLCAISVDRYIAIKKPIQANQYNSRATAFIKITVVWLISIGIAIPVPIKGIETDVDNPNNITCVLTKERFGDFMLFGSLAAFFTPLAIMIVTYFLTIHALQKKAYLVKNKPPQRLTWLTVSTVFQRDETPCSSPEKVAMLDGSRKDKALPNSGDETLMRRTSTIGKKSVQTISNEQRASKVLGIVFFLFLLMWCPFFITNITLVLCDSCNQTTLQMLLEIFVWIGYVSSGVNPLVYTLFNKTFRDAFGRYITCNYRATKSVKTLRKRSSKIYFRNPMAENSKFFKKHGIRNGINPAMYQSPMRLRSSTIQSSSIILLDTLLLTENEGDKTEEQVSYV
Experimental: Human embryonic kidney 293 (HEK293) cells were transfected with the human 5-HT2B receptors, seed into 96-well plates coated with poly-D-lysine at a concentration of 50,000 cell per 0.1 mL and then incubated for overnight at 37 °C in high glucose Dulbecco’s modified Eagle’s medium (DMEM; Invitrogen, Zug, Switzerland) containing 10% fetal calf serum (non-dialyzed, heat-inactivated), 250 mg/L Geneticin, and 10 mL/L PenStrep (Gibco). The medium was then removed using snap inversion and the cells were incubated with the 100 μL/well of calcium indicator Fluo-3-solution for 45 min at 31 °C (Molecular Probes, Eugene, OR, USA). Thereafter, the solution was removed using snap inversion and replaced with fresh calcium indicator Fluo-3-solution for an additional 45 min at 31 °C. The cells were then washed with HBSS and 20 mM HEPES using the EMBLA cell washer and immediately after incubated with 100 μL of assay buffer. The plate was then put into the FLIPR, turned online and the test drugs, diluted in the assay buffer were added to the corresponding wells (25 μL/well). The corresponding concentration vs. response curves were fitted using nonlinear regression and the EC50 values were calculated. The efficacy (maximal activity) was calculated relative to 5-HT activity, which was defined as 100%.

h5-HT2A receptor = h5-HT2A receptor (Homo sapiens, UniProt P28223); assay: Radioligand binding, [3H]-ketanserin; parameters: expressed in transfected cells; host or cells: HEK293 cell preparations
Chain of h5-HT2A receptor (P28223 whole entry): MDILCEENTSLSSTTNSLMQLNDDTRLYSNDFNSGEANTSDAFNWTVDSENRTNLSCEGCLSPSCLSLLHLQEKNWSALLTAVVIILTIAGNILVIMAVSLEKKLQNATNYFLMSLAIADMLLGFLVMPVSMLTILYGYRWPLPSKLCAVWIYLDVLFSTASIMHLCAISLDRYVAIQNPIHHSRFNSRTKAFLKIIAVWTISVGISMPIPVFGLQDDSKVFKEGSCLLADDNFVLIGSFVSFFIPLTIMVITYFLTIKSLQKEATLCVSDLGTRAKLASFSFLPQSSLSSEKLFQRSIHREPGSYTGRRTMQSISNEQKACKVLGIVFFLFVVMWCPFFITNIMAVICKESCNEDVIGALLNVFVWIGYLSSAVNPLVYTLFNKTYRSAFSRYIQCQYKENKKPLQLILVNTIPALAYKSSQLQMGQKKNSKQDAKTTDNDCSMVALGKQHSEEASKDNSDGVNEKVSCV
Experimental: as §1

[4] = compared to pyrovalerone and MPHP

Compound	Ki (h5-HT1A receptor)	IC50 [1]	DAT/SERT Ratio (95% CI) [2]	IC50 [2]	DAT/SERT Ratio (95% CI) ([2]; listed as pyrovalerone)	IC50 [3]	EC50 (h5-HT2B receptor)	Ki (h5-HT2A receptor)	DAT/SERT Ratio (95% CI) ([2]; (1/DAT IC50):(1/SERT IC50))	fold higher potency at the DAT ([2]; compared to α-PPP)	fold higher inhibition potency at the NET [3]	fold lower inhibition potency at the DAT ([2]; compared to α-PPP)	NET IC50 value fold higher ([3]; than observed for α-PPP)	fold lower potency at the DAT [2, 4]	fold lower potency at the NET [3, 4]
CCCC(C(=O)c1ccc(C)cc1)N1CCCC1 (centres unmarked) [Pyrovalerone, pyrovalerone]	13 ± 1.4 µM	13 µM	256 (125–450)	0.05 µM	> 72	0.06 µM	> 20 µM	> 13 µM							
CCC(C(=O)c1ccc2c(c1)OCO2)N1CCCC1 (stereo not drawn) [MDPBP, 3,4-methylenedioxy-α-pyrrolidinobutiophenone]	9 ± 1.5 µM	11 µM		0.07 µM		0.14 µM	> 20 µM	> 13 µM							
CCCC(C(=O)c1ccc2c(c1)OCO2)N1CCCC1 (centres unmarked) [MDPV, 3,4-methylenedioxypyrovalerone]	7.7 ± 0.6 µM	8.4 µM		0.03 µM		0.05 µM	> 20 µM	> 13 µM							
CCCC(C(=O)c1ccccc1)N1CCCC1 (stereo not drawn) [α-PVP, α-pyrrolidinopentiophenone]	6.1 ± 0.7 µM	279 µM		0.03 µM		0.02 µM	> 20 µM	> 13 µM	>1000	17 fold	32 fold				
CCCCC(NCC)C(=O)c1ccccc1 (centres unmarked) [NEH, N-ethylamine-hexanophenone]	> 17 µM	47 µM		0.18 µM		0.17 µM	> 20 µM	> 13 µM							
CCC(C(=O)c1ccc(F)cc1)N1CCCC1 (stereo not drawn) [4F-PBP, 4-fluoro-α-pyrrolidinobutiophenone]	6 ± 3.4 µM	177 µM		0.5 µM		0.61 µM	> 20 µM	> 13 µM							
CCCCC(C(=O)c1ccccc1)N1CCCC1 (stereo not drawn) [α-PHP, α-pyrrolidinohexanophenone]	11 ± 5.3 µM	245 µM		0.06 µM		0.06 µM	> 20 µM	> 13 µM	>1000	9 fold	11 fold				
CCCCC(C(=O)c1ccc2c(c1)OCO2)N1CCCC1 (stereo not drawn) [MDPHP, 3,4-methylenedioxy-α-pyrrolidinohexanophenone]	13 ± 1.9 µM	9 µM		0.05 µM		0.06 µM	> 20 µM	> 13 µM							
CNC(C)Cc1ccc2c(c1)OCO2 (centres unmarked) [MDMA, 3,4-methylenedioxymethamphetamine, reference compound]		1.6 µM		13 µM		0.41 µM									
COc1ccc(C(=O)C(C)N2CCCC2)cc1 (stereo not drawn) [MOPPP, 4-methoxy-α-pyrrolidinopropiophenone]	> 17 µM	94 µM		4.6 µM		8.7 µM	> 20 µM	> 13 µM	20 (4.0–40)			8 fold	about 14 fold		
CCCCC(C(=O)c1ccc(C)cc1)N1CCCC1 (stereo not drawn) [MPHP, 4-methyl-α-pyrrolidinohexanophenone]	13 ± 1.9 µM	11 µM		0.06 µM		0.07 µM	> 20 µM	7.3 ± 1.2 µM							
CC(C(=O)c1ccccc1)N1CCCC1 (stereo not drawn) [α-PPP, α-pyrrolidinopropiophenone]	0.7 ± 0.3 µM	> 1000 µM		0.56 µM		0.64 µM	> 20 µM	1.1 ± 0.3 µM	>1000						
Cc1ccc(C(=O)C(C)N2CCCC2)cc1 (stereo not drawn) [4-MePPP, 4-methyl-α-pyrrolidinopropiophenone]	12 ± 2.2 µM	55 µM		0.75 µM		0.64 µM	> 10 µM	1.3 ± 0.4 µM						15 fold	11 fold
CC(C(=O)c1ccc2c(c1)OCO2)N1CCCC1 (stereo not drawn) [MDPPP, 3,4-methylenedioxy-α-pyrrolidinopropiophenone]	1.9 ± 0.8 µM	43 µM		0.54 µM		1.7 µM	> 20 µM	8 ± 1.2 µM							
